According to paper PMC3885247 (Journal of medicinal chemistry, 2008):

Experiments:
pcDHFR [1] = biological target: T1, pcDHFR (Pneumocystis carinii, UniProt P16184); assay: Inhibition of P. carinii DHFR; assay type: biochemical
T1 sequence (P16184 1-206): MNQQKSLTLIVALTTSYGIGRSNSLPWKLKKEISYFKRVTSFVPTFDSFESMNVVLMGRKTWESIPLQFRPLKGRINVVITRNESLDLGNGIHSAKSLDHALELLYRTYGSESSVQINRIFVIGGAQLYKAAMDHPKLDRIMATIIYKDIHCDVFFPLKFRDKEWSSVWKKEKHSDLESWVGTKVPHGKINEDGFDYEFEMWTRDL

rlDHFR = biological target: T2, rlDHFR (Rattus norvegicus, UniProt Q920D2); assay: Inhibition of rat liver DHFR; assay type: biochemical
T2 sequence (Q920D2 1-187): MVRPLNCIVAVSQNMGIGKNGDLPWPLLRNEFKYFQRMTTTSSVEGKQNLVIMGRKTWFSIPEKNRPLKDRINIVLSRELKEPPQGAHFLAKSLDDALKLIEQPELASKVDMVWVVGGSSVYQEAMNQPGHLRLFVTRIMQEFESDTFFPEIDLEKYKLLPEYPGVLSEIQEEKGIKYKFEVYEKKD

tgDHFR [2] = biological target: T3, tgDHFR (Toxoplasma gondii, UniProt Q07422); assay: biochemical
T3 sequence (Q07422 1-610): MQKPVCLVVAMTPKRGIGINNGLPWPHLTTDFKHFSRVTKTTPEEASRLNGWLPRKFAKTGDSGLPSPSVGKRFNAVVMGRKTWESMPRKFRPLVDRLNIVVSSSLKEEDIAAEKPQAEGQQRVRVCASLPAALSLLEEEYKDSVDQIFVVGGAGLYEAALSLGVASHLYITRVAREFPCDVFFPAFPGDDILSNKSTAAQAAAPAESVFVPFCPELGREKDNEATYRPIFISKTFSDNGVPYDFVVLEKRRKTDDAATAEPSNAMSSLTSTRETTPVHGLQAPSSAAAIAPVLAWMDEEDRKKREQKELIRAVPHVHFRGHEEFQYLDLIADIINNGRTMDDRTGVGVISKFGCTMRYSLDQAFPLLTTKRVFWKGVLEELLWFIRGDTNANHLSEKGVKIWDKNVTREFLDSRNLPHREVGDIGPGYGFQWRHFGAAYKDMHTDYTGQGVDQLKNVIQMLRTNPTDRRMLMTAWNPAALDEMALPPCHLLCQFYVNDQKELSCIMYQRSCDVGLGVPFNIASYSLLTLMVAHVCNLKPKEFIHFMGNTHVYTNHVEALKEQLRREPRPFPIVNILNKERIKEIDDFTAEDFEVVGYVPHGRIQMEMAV

maDHFR = biological target: T4, maDHFR (Mycobacterium avium, UniProt O30463); assay: Inhibition of M. avium DHFR; assay type: biochemical
T4 sequence (O30463 1-181): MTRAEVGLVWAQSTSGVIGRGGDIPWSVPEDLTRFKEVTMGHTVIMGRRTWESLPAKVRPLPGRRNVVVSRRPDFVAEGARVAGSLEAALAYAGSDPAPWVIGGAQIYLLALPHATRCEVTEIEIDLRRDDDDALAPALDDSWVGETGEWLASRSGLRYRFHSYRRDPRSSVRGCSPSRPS

pcDHFR [3] = biological target: T1, pcDHFR; conditions: previously reported quinazolines; cited from earlier work
tgDHFR [4] = biological target: T3, tgDHFR; conditions: previously reported quinazolines; cited from earlier work

| SMILES | IC50 (pcDHFR [1]) [nM] | Selectivity ratio rl/pc (IC50 rlDHFR/IC50 pcDHFR) (pcDHFR [1]) | IC50 (rlDHFR) [nM] | IC50 (tgDHFR [2]) [nM] | Selectivity ratio rl/tg (IC50 rlDHFR/IC50 tgDHFR) (tgDHFR [2]) | IC50 (maDHFR) [nM] | Fold decrease in potency against maDHFR compared to 10 (maDHFR; comparator 10) [fold] | Selectivity ratio rl/pc (pcDHFR [3]) | Selectivity ratio rl/tg (tgDHFR [4]) |
| --- | --- | --- | --- | --- | --- | --- | --- | --- | --- |
| COc1ccc(OC)c(CN(CC2CC2)c2ccc3nc(N)nc(N)c3c2)c1 [Compound 12, 2,4-Diamino-6-[N-(2,5-dimethoxybenzyl)-N-cyclopropylmethylamino]quinazoline] | 25 | 0.4 | 9.6 | 7.3 | 1.3 | 16 | 5 | – | – |
| COc1ccc(OC)c(CNc2ccc3nc(N)nc(N)c3c2)c1 [Compound 3] | – | – | – | – | – | – | – | 0.2 | 7 |
